Assay results taken from US20060094722A1 (Eisai Co., Ltd., priority 2002, published 2006).
Where “and” joins values, the source holds several entries; their conditions need not be identical. Equal values may be shown once. Read-outs that look alike come from different tables or passages of the source.

Assays:
[1] = system: DPPIV-intact normal male Fisher rats; assay: Influences of metformin and DPPIV inhibitors (Examples 82, 119, 120, 122, 229, 267), singly or in combination, on GLP-1 level in normal rats; type: in vivo, rat
Procedure: Animals: DPPIV-Intact Normal Male Fisher Rats (Purchased from CLEA Japan, Inc.)
250 μL of blood was collected from the rat using a heparinized capillary and transferred into a centrifugation tube.

Zucker fa/fa rats [2] = settings: for Blood glucose level at each time point (hr) after oral glucose administration / GLP-1 concentration at each time point (hr) after oral glucose administration (% of Pre) / Insulin concentration at each time point (hr) after oral glucose administration: 300 mg/kg p.o. 0.5 hour before glucose load
Procedure: (§1) Animals: Zucker fa/fa Rats, an Animal Model for TypeII Diabetes (Purchased from Charles River Japan, Inc.)
(§2) Each test compound was dissolved in distilled water at the doses shown in the Tables indicated below, and then administered orally at a volume of 5 mL/kg. The vehicle control group was orally administered distilled water at a volume of 5 mL/kg. […] The rats were tested for glucose tolerance on the first day of the administration series. In the test, distilled water and the test compounds were given 0.5 hour before glucose load.
For the glucose tolerance test, an unanesthetized rat was lightly cut at the caudal vein with a razor blade and bled immediately before the administration of a test compound or distilled water, and immediately before, and at 0.5, 1, 2, and 3 hours after glucose load. 250 μL of blood was collected from the rat using a heparinized capillary and transferred into a centrifugation tube. The supernatant obtained by centrifugation (at 10000 g at 4° C. for 2 minutes) was assayed for active GLP-1 level using Active GLP-1 ELISA kit (Linco). At the same time, 10 μL of blood was collected and mixed with 140 μL of a 0.6 M perchloric acid solution. The mixture was centrifuged (at 3000 g at 4° C. for 10 minutes), and the resulting supernatant was assayed for glucose using Glucose Test Wako II (Wako Pure Chemical Industries, Inc.). The level of blood glucose alone was determined at the time of measurement 3 hours after glucose load.

Zucker fa/fa rats [3] = settings: 300 mg/kg p.o. twice daily for 14 days
Procedure: as §1, §2
Food intake and body weight were determined at 4:00 p.m after the 14-day administration series. Total food intake and weight gain over 14 days were determined for each experimental group.

[4] = system: DPPIV-deficient male Fisher rats; assay: Influence of metformin on the level of GLP-2 in DPPIV-deficient rats; type: in vivo, rat; settings: 300 mg/kg p.o.; for GLP-2 concentration at each time point (hr) after oral administration (ng/ml): listed as metformin
Procedure: Animals: DPPIV-Deficient Male Fisher Rats (Purchased from Charles River Japan, Inc.)
The test compound was suspended in a solution of 0.5% methyl cellulose at the dose indicated in Table 11, and then administered orally at a volume of 5 mL/kg. The vehicle control group was orally administered an aqueous solution of 0.5% methyl cellulose at a volume of 5 mL/kg.
An unanesthetized rat was lightly cut at the caudal vein with a razor blade and bled immediately before, and at 1, 3, and 5 hours after administration of a test compound or a solution of 0.5% methyl cellulose. 250 μL of blood was collected from the rat using a heparinized capillary and transferred into a centrifugation tube. The supernatant obtained by centrifugation (at 10000 g at 4° C. for 2 minutes) was assayed for GLP-2 level using GLP-2 ELISA kit (Yanaihara Institute Inc.).

[5] = system: DPPIV-deficient male Fisher rats
Procedure: Animals: DPPIV-deficient male Fisher rats (purchased from Charles River Japan, Inc.)
Each test compound was suspended in a solution of 0.5% methyl cellulose at the doses indicated in Table 2, and then administered orally at a volume of 5 mL/kg. The vehicle control group was orally administered a solution of 0.5% methyl cellulose at a volume of 5 mL/kg.
An unanesthetized rat was lightly cut at the caudal vein with a razor blade and bled immediately before, and at 1, 3, and 5 hours after the administration of a test compound or a solution of 0.5% methyl cellulose. 250 μL of blood was collected from the rat using a heparinized capillary and transferred into a centrifugation tube. The supernatant obtained by centrifugation (at 10000 g at 4° C. for 2 minutes) was assayed for GLP-1 level using Active GLP-1 ELISA kit (Linco).

[6] = system: DPPIV-intact normal male Fisher rats; settings: for GLP-1 concentration at each time point (hr) after oral administration (% of Pre): 300 mg/kg p.o.
Procedure: Each test compound was suspended in a solution of 0.5% methyl cellulose at the doses indicated in Table 3, and then administered orally at a volume of 5 mL/kg. The vehicle control group was orally administered a solution of 0.5% methyl cellulose at a volume of 5 mL/kg.
An unanesthetized rat was lightly cut at the caudal vein with a razor blade and bled immediately before, and at 1, 3, and 5 hours after administration of a test compound or a solution of 0.5% methyl cellulose. 250 μL of blood was collected from the rat using a heparinized capillary and transferred into a centrifugation tube. The supernatant obtained by centrifugation (at 10000 g at 4° C. for 2 minutes) was assayed for GLP-1 level using Active GLP-1 ELISA kit (Linco).

BALB/c AnCrj mice = settings: 300 mg/kg p.o. twice a day, 5-FU treatment 60 mg/kg for 3 days, mice
Procedure: Animals: BALB/c AnCrj Mice (Purchased from Charles River Japan, Inc.)
5-FU (purchased from Sigma) was suspended in a solution of 0.5% methyl cellulose, and then administered orally at a volume of 10 mL/kg/day (8 a.m. to 9 a.m.) for 3 days (60 mg/kg). […] The vehicle control group was orally administered a solution of 0.5% methyl cellulose at a volume of 10 mL/kg.
Mice were fasted for 18 hours following the afternoon administration on the third day of the administration series. On the following day, the mice were killed by cervical dislocation, and then the whole small intestine was excised and the wet weight was measured.

SMILES: CN(C)C(=N)N=C(N)N [Metformin, metformin]
- GLP-1 concentration 3 hours after oral administration (% of Pre) ([1]; 300 mg/kg p.o., 3 hours): 118.1 ± 7.5 % of Pre and 108.6 ± 2.2 % of Pre and 112.5 ± 2.4 % of Pre
- level of active GLP-1 ([1]; 3 hours after administration): no increase
- level of active GLP-1 during the glucose tolerance test (Zucker fa/fa rats [2]): no significant increase
- level of insulin during the glucose tolerance test (Zucker fa/fa rats [2]): no significant increase
- Blood glucose level at each time point (hr) after oral glucose administration (Zucker fa/fa rats [2]; 0 hr): 117.4 ± 5.5 mg/dL
- GLP-1 concentration at each time point (hr) after oral glucose administration (% of Pre) (Zucker fa/fa rats [2]; 0 hr): 105.6 ± 1.7 % of Pre
- Insulin concentration at each time point (hr) after oral glucose administration (Zucker fa/fa rats [2]; 0 hr): 14.0 ± 1.1 ng/mL
- Blood glucose level at each time point (hr) after oral glucose administration (Zucker fa/fa rats [2]; 0.5 hr): 160.6 ± 9.7 mg/dL
- GLP-1 concentration at each time point (hr) after oral glucose administration (% of Pre) (Zucker fa/fa rats [2]; 0.5 hr): 135.4 ± 7.6 % of Pre
- Insulin concentration at each time point (hr) after oral glucose administration (Zucker fa/fa rats [2]; 0.5 hr): 22.9 ± 2.5 ng/mL
- Blood glucose level at each time point (hr) after oral glucose administration (Zucker fa/fa rats [2]; 1 hr): 177.5 ± 10.6 mg/dL
- GLP-1 concentration at each time point (hr) after oral glucose administration (% of Pre) (Zucker fa/fa rats [2]; 1 hr): 126.0 ± 8.9 % of Pre
- Insulin concentration at each time point (hr) after oral glucose administration (Zucker fa/fa rats [2]; 1 hr): 21.2 ± 2.3 ng/mL
- Blood glucose level at each time point (hr) after oral glucose administration (Zucker fa/fa rats [2]; 2 hr): 159.8 ± 8.6 mg/dL
- GLP-1 concentration at each time point (hr) after oral glucose administration (% of Pre) (Zucker fa/fa rats [2]; 2 hr): 118.4 ± 6.5 % of Pre
- Insulin concentration at each time point (hr) after oral glucose administration (Zucker fa/fa rats [2]; 2 hr): 16.9 ± 1.6 ng/mL
- Blood glucose level at each time point (hr) after oral glucose administration (Zucker fa/fa rats [2]; 3 hr): 122.4 ± 3.7 mg/dL
- Blood glucose level at each time point (hr) after oral glucose administration (Zucker fa/fa rats [2]; −0.5 hr): 108.9 ± 5.6 mg/dL
- GLP-1 concentration at each time point (hr) after oral glucose administration (% of Pre) (Zucker fa/fa rats [2]; −0.5 hr): 100.0 ± 0.0 % of Pre
- Insulin concentration at each time point (hr) after oral glucose administration (Zucker fa/fa rats [2]; −0.5 hr): 11.9 ± 1.1 ng/mL
- glucose tolerance (Zucker fa/fa rats [2]; glucose tolerance test): improved
- Total food intake for 14 days (Zucker fa/fa rats [3]): 495.1 ± 8.9 g
- Weight gain for 14 days (Zucker fa/fa rats [3]): 64.5 ± 3.5 g
- GLP-2 concentration at each time point (hr) after oral administration ([4]; 0 hr): 1.32 ± 0.02 ng/mL
- GLP-2 concentration at each time point (hr) after oral administration ([4]; 1 hr): 1.65 ± 0.06 ng/mL
- GLP-2 concentration at each time point (hr) after oral administration (ng/ml) ([4]; 1 hr): significantly elevated
- GLP-2 concentration at each time point (hr) after oral administration ([4]; 3 hr): 2.08 ± 0.07 ng/mL
- GLP-2 concentration at each time point (hr) after oral administration (ng/ml) ([4]; 3 hr): significantly elevated
- GLP-2 concentration at each time point (hr) after oral administration ([4]; 5 hr): 2.15 ± 0.05 ng/mL
- GLP-2 concentration at each time point (hr) after oral administration (ng/ml) ([4]; 5 hr): significantly elevated
- GLP-1 concentration at each time point (hr) after oral administration (% of Pre) ([5]; 30 mg/kg p.o., 0 hr): 100 ± 0.0 % of Pre
- GLP-1 concentration at each time point (hr) after oral administration (% of Pre) ([5]; 30 mg/kg p.o., 1 hr): 99.9 ± 3.7 % of Pre
- GLP-1 concentration at each time point (hr) after oral administration (% of Pre) ([5]; 30 mg/kg p.o., 3 hr): 106.6 ± 5.0 % of Pre
- GLP-1 concentration at each time point (hr) after oral administration (% of Pre) ([5]; 30 mg/kg p.o., 5 hr): 116.3 ± 2.7 % of Pre
- GLP-1 concentration at each time point (hr) after oral administration (% of Pre) ([5]; 100 mg/kg p.o., 0 hr): 100 ± 0.0 % of Pre
- GLP-1 concentration at each time point (hr) after oral administration (% of Pre) ([5]; 100 mg/kg p.o., 1 hr): 111.6 ± 7.9 % of Pre
- GLP-1 concentration at each time point (hr) after oral administration (% of Pre) ([5]; 100 mg/kg p.o., 3 hr): 116.3 ± 8.2 % of Pre
- GLP-1 concentration at each time point (hr) after oral administration (% of Pre) ([5]; 100 mg/kg p.o., 5 hr): 150.6 ± 7.2 % of Pre
- GLP-1 concentration at each time point (hr) after oral administration (% of Pre) ([5]; 300 mg/kg p.o., 0 hr): 100 ± 0.0 % of Pre
- GLP-1 concentration at each time point (hr) after oral administration (% of Pre) ([5]; 300 mg/kg p.o., 1 hr): 140.0 ± 11.5 % of Pre
- GLP-1 concentration at each time point (hr) after oral administration (% of Pre) ([5]; 300 mg/kg p.o., 3 hr): 199.3 ± 32.4 % of Pre
- GLP-1 concentration at each time point (hr) after oral administration (% of Pre) ([5]; 300 mg/kg p.o., 5 hr): 227.1 ± 35.5 % of Pre
- GLP-1 concentration at each time point (hr) after oral administration (% of Pre) ([5]; 300 mg/kg p.o., 5 hr, listed as metformin): significantly elevated
- GLP-1 concentration at each time point (hr) after oral administration (% of Pre) ([6]; 0 hr): 100 ± 0.0 % of Pre
- GLP-1 concentration at each time point (hr) after oral administration (% of Pre) ([6]; 1 hr): 117 ± 9 % of Pre
- GLP-1 concentration at each time point (hr) after oral administration (% of Pre) ([6]; 3 hr): 149 ± 24 % of Pre
- GLP-1 concentration at each time point (hr) after oral administration (% of Pre) ([6]; 5 hr): 94 ± 10 % of Pre
- level of active GLP-1 ([6]; given singly): no increase
- Wet weight of small intestine (BALB/c AnCrj mice): 0.642 ± 0.017 g
- Wet weight of small intestine (g) (BALB/c AnCrj mice; listed as metformin): no alteration
